According to ChEMBL document CHEMBL4699528, “Discovery and Optimization of Non-bile Acid FXR Agonists as Preclinical Candidates for the Treatment of Nonalcoholic Steatohepatitis” (J Med Chem, 2020):

Assay: in vivo
Settings: Sprague-Dawley, rat, iv, 1 mg/kg

MRT inf	SMILES
102 min	O=C(O)c1cc(F)c2nc(N3C4CCC3CC(F)(COCc3c(-c5ccccc5OC(F)(F)F)noc3C3CC3)C4)sc2c1 (configuration not stated)
21 min	Cn1cc(C(=O)O)c2ccc(N3CCC(OCc4c(-c5c(Cl)cccc5Cl)noc4C4CC4)CC3)cc21 [TERN-101]
30.6 min	CCn1cc(C(=O)O)c2ccc(N3CCC(F)(COCc4c(-c5c(F)cccc5Cl)noc4C4CC4)CC3)cc21

Assay: in vivo
Settings: Sprague-Dawley, rat, liver, po, 3 mg/kg

SMILES	concentration at 4 h
O=C(O)c1cc(F)c2nc(N3C4CCC3CC(F)(COCc3c(-c5ccccc5OC(F)(F)F)noc3C3CC3)C4)sc2c1 (configuration not stated)	612 ng/mL
CCn1cc(C(=O)O)c2ccc(N3CCC(F)(COCc4c(-c5c(F)cccc5Cl)noc4C4CC4)CC3)cc21	772 ng/mL

Continued, values first:

concentration at 4 h	SMILES
186 ng/mL	CCn1c(C(=O)O)cc2ccc(N3CCC(F)(COCc4c(-c5c(Cl)cccc5Cl)noc4C4CC4)CC3)cc21
929 ng/mL	O=C(O)c1cc(F)c2nc(N3CCC(F)(COCc4c(-c5c(F)cccc5Cl)noc4C4CC4)CC3)sc2c1
153 ng/mL	Cn1cc(C(=O)O)c2ccc(N3CCC(OCc4c(-c5c(Cl)cccc5Cl)noc4C4CC4)CC3)cc21 [TERN-101]

Assay: in vivo
Settings: Sprague-Dawley, rat, po, 3 mg/kg

Cmax	SMILES
590 ng/mL	O=C(O)c1cc(F)c2nc(N3C4CCC3CC(F)(COCc3c(-c5ccccc5OC(F)(F)F)noc3C3CC3)C4)sc2c1 (configuration not stated)
283 ng/mL	Cn1cc(C(=O)O)c2ccc(N3CCC(OCc4c(-c5c(Cl)cccc5Cl)noc4C4CC4)CC3)cc21 [TERN-101]
117 ng/mL	CCn1cc(C(=O)O)c2ccc(N3CCC(F)(COCc4c(-c5c(F)cccc5Cl)noc4C4CC4)CC3)cc21

Assay: in vivo
Settings: Sprague-Dawley, rat, po, 3 mg/kg
Remark: another data set of the same source

half-life	SMILES
1220 min	O=C(O)c1cc(F)c2nc(N3C4CCC3CC(F)(COCc3c(-c5ccccc5OC(F)(F)F)noc3C3CC3)C4)sc2c1 (configuration not stated)
133 min	Cn1cc(C(=O)O)c2ccc(N3CCC(OCc4c(-c5c(Cl)cccc5Cl)noc4C4CC4)CC3)cc21 [TERN-101]
58.8 min	CCn1cc(C(=O)O)c2ccc(N3CCC(F)(COCc4c(-c5c(F)cccc5Cl)noc4C4CC4)CC3)cc21

Assay: in vivo
Settings: Sprague-Dawley, rat, po, 3 mg/kg
Remark: another data set of the same source

Tmax	SMILES
22.8 min	O=C(O)c1cc(F)c2nc(N3C4CCC3CC(F)(COCc3c(-c5ccccc5OC(F)(F)F)noc3C3CC3)C4)sc2c1 (configuration not stated)
15 min	Cn1cc(C(=O)O)c2ccc(N3CCC(OCc4c(-c5c(Cl)cccc5Cl)noc4C4CC4)CC3)cc21 [TERN-101]
15 min	CCn1cc(C(=O)O)c2ccc(N3CCC(F)(COCc4c(-c5c(F)cccc5Cl)noc4C4CC4)CC3)cc21

Assay: in vivo
Settings: Sprague-Dawley, rat, plasma, po, 3 mg/kg

SMILES	concentration at 1 h
O=C(O)c1cc(F)c2nc(N3C4CCC3CC(F)(COCc3c(-c5ccccc5OC(F)(F)F)noc3C3CC3)C4)sc2c1 (configuration not stated)	1140 ng/mL
CCn1cc(C(=O)O)c2ccc(N3CCC(F)(COCc4c(-c5c(F)cccc5Cl)noc4C4CC4)CC3)cc21	24 ng/mL

The next lines start with the values.

concentration at 1 h	SMILES
6.3 ng/mL	CCn1c(C(=O)O)cc2ccc(N3CCC(F)(COCc4c(-c5c(Cl)cccc5Cl)noc4C4CC4)CC3)cc21
241 ng/mL	O=C(O)c1cc(F)c2nc(N3CCC(F)(COCc4c(-c5c(F)cccc5Cl)noc4C4CC4)CC3)sc2c1
19.3 ng/mL	Cn1cc(C(=O)O)c2ccc(N3CCC(OCc4c(-c5c(Cl)cccc5Cl)noc4C4CC4)CC3)cc21 [TERN-101]

Assay: in vivo
Settings: Sprague-Dawley, rat, po, 3 mg/kg
Remark: another data set of the same source

bioavailability	SMILES
32.2%	O=C(O)c1cc(F)c2nc(N3C4CCC3CC(F)(COCc3c(-c5ccccc5OC(F)(F)F)noc3C3CC3)C4)sc2c1 (configuration not stated)
32.4%	Cn1cc(C(=O)O)c2ccc(N3CCC(OCc4c(-c5c(Cl)cccc5Cl)noc4C4CC4)CC3)cc21 [TERN-101]
5.64%	CCn1cc(C(=O)O)c2ccc(N3CCC(F)(COCc4c(-c5c(F)cccc5Cl)noc4C4CC4)CC3)cc21

Assay: in vivo
Settings: Sprague-Dawley, rat, iv, 1 mg/kg
Remark: another data set of the same source

AUC(0-t)	SMILES
1930 ng·h/mL	O=C(O)c1cc(F)c2nc(N3C4CCC3CC(F)(COCc3c(-c5ccccc5OC(F)(F)F)noc3C3CC3)C4)sc2c1 (configuration not stated)
201 ng·h/mL	Cn1cc(C(=O)O)c2ccc(N3CCC(OCc4c(-c5c(Cl)cccc5Cl)noc4C4CC4)CC3)cc21 [TERN-101]
611 ng·h/mL	CCn1cc(C(=O)O)c2ccc(N3CCC(F)(COCc4c(-c5c(F)cccc5Cl)noc4C4CC4)CC3)cc21

Assay: in vivo
Settings: Sprague-Dawley, rat, plasma, po, 3 mg/kg
Remark: another data set of the same source

SMILES	concentration at 4 h
O=C(O)c1cc(F)c2nc(N3C4CCC3CC(F)(COCc3c(-c5ccccc5OC(F)(F)F)noc3C3CC3)C4)sc2c1 (configuration not stated)	165 ng/mL
CCn1cc(C(=O)O)c2ccc(N3CCC(F)(COCc4c(-c5c(F)cccc5Cl)noc4C4CC4)CC3)cc21	49 ng/mL

The remaining lines, values ahead:

concentration at 4 h	SMILES
12.6 ng/mL	CCn1c(C(=O)O)cc2ccc(N3CCC(F)(COCc4c(-c5c(Cl)cccc5Cl)noc4C4CC4)CC3)cc21
94.8 ng/mL	O=C(O)c1cc(F)c2nc(N3CCC(F)(COCc4c(-c5c(F)cccc5Cl)noc4C4CC4)CC3)sc2c1
52.1 ng/mL	Cn1cc(C(=O)O)c2ccc(N3CCC(OCc4c(-c5c(Cl)cccc5Cl)noc4C4CC4)CC3)cc21 [TERN-101]

Assay: in vivo
Settings: Sprague-Dawley, rat, 3 mg/kg

Vd	SMILES
0.84 L/kg	O=C(O)c1cc(F)c2nc(N3C4CCC3CC(F)(COCc3c(-c5ccccc5OC(F)(F)F)noc3C3CC3)C4)sc2c1 (configuration not stated)
1.74 L/kg	Cn1cc(C(=O)O)c2ccc(N3CCC(OCc4c(-c5c(Cl)cccc5Cl)noc4C4CC4)CC3)cc21 [TERN-101]
0.81 L/kg	CCn1cc(C(=O)O)c2ccc(N3CCC(F)(COCc4c(-c5c(F)cccc5Cl)noc4C4CC4)CC3)cc21

Assay: in vivo
Settings: Sprague-Dawley, rat, iv, 1 mg/kg
Remark: another data set of the same source

clearance	SMILES
8.54 mL/min/kg	O=C(O)c1cc(F)c2nc(N3C4CCC3CC(F)(COCc3c(-c5ccccc5OC(F)(F)F)noc3C3CC3)C4)sc2c1 (configuration not stated)
82.6 mL/min/kg	Cn1cc(C(=O)O)c2ccc(N3CCC(OCc4c(-c5c(Cl)cccc5Cl)noc4C4CC4)CC3)cc21 [TERN-101]
26.4 mL/min/kg	CCn1cc(C(=O)O)c2ccc(N3CCC(F)(COCc4c(-c5c(F)cccc5Cl)noc4C4CC4)CC3)cc21

Assay: in vivo
Settings: Sprague-Dawley, rat, liver, po, 3 mg/kg
Remark: another data set of the same source

SMILES	concentration at 1 h
O=C(O)c1cc(F)c2nc(N3C4CCC3CC(F)(COCc3c(-c5ccccc5OC(F)(F)F)noc3C3CC3)C4)sc2c1 (configuration not stated)	2340 ng/mL
CCn1cc(C(=O)O)c2ccc(N3CCC(F)(COCc4c(-c5c(F)cccc5Cl)noc4C4CC4)CC3)cc21	656 ng/mL

Next, values leading:

concentration at 1 h	SMILES
72 ng/mL	CCn1c(C(=O)O)cc2ccc(N3CCC(F)(COCc4c(-c5c(Cl)cccc5Cl)noc4C4CC4)CC3)cc21
1550 ng/mL	O=C(O)c1cc(F)c2nc(N3CCC(F)(COCc4c(-c5c(F)cccc5Cl)noc4C4CC4)CC3)sc2c1
121 ng/mL	Cn1cc(C(=O)O)c2ccc(N3CCC(OCc4c(-c5c(Cl)cccc5Cl)noc4C4CC4)CC3)cc21 [TERN-101]

Assay: in vivo
Settings: Sprague-Dawley, rat, po, 3 mg/kg
Remark: another data set of the same source

AUC(0-t)	SMILES
1860 ng·h/mL	O=C(O)c1cc(F)c2nc(N3C4CCC3CC(F)(COCc3c(-c5ccccc5OC(F)(F)F)noc3C3CC3)C4)sc2c1 (configuration not stated)
195 ng·h/mL	Cn1cc(C(=O)O)c2ccc(N3CCC(OCc4c(-c5c(Cl)cccc5Cl)noc4C4CC4)CC3)cc21 [TERN-101]
103 ng·h/mL	CCn1cc(C(=O)O)c2ccc(N3CCC(F)(COCc4c(-c5c(F)cccc5Cl)noc4C4CC4)CC3)cc21
